Reference: patent publication US10716797B2, “Steroid alkaloids and compositions and kits thereof” (priority 2013, dated 2020)

Tests used:
MRSA USA300 = test: MIC by microdilution, alone or in combination, MRSA USA300; type: cell-based, Staphylococcus aureus; conditions: Staphylococcus aureus, agent used alone, read-out: MIC
Protocol: (§1) Method. The minimal inhibitory concentrations (MICs), (i.e. lowest concentration of an antimicrobial that will inhibit the visible growth of a microorganism after incubation), of test compounds were determined against the normal or SCV strains of bacterial species from the Firmicutes phylum. Briefly, MICs were determined using the microdilution method in 96-well plates (Clinical and Laboratory Standards Institute (CLSI), 2011). Bacteria were inoculated at ˜10^5-10^6 CFU/mL and incubated at 35° C. for 20 h (normal strains) or 48 h (SCVs) in brain heart infusion (BHI) broth in order to allow SCVs to reach maximal growth as previously described (Mitchell et al., 2012). Then OD595 nm was read on a microplate reader. […] In this example the range of compound concentrations tested was 0.03 to 64 μg/ml using doubling increments. Strain Staphylococcus aureus NewbouldΔhemB (hemB) was also used in the experiments and is a laboratory-derived stable SCV created by the insertion of the macrolide resistance gene ermA in the hemB gene of this strain to create the SCV phenotype (defective electron transport chain and respiratory deficiency) through inactivation of hemin biosynthesis (Brouillette et al., 2004).
(§2) In the present Example the range of compound concentrations tested, using doubling increments, was 0.03 to 64 μg/ml for Compound 14 and up to 1024 μg/ml for gentamicin (GEN), kanamycin (KAN) and cefalexin (CEF) when these compounds were used alone. Compound 14 (Cpd 14) was used at a fixed concentration of 4 μg/ml when added to other antibiotics. The combination of CEF and KAN was used in a 3:2 ratio and doubling increments were used to test the antibacterial activity against MRSA in the absence or presence of Compound 14.

MRSA USA100 = test: MIC by microdilution, alone or in combination, MRSA USA100; type: cell-based, Staphylococcus aureus; conditions: Staphylococcus aureus, agent used alone, read-out: MIC
Protocol: as §1, §2

[1] = test system: methicillin-resistant Staphylococcus aureus (MRSA) strains; test: MIC against MRSA strains; type: cell-based; conditions: Staphylococcus aureus, MRSA, used alone; tested MRSA strains (kanamycin: two of the strains)
Protocol: as §1, §2

MRSA COL = test: MIC by microdilution, alone or in combination, MRSA COL; type: cell-based, Staphylococcus aureus; conditions: Staphylococcus aureus, agent used alone, read-out: MIC
Protocol: as §1, §2

Measured: MIC

CC1=C(C(=O)O)N2C(=O)[C@@H](NC(=O)[C@H](N)c3ccccc3)[C@H]2SC1 [Cefalexin, cefalexin]
256 µg/mL: all assays above
